Assay results reported in patent US20220326244A1, “METHODS FOR DIAGNOSIS, PROGNOSIS, AND TREATMENT OF CANCER” (The Boardof Trustees of the Leland Stanford Junort …, priority 2019, published 2022).

Columns and labels:
NK-92 cells = test: PMA-stimulated degranulation and intracellular cytokine production of NK-92 cells (CyTOF); format: cell-based, human; settings: mono- and coculture; PMA 4 h exposure
Excerpt: Intracellular cytokine production of CD9+ and CD9− NK-92 cells. One of the mechanisms by which dNK cells exert immune tolerance is through poor cytotoxic responses and secretion of a specific set of cytokines. Thus, we hypothesized that trogocytosis and the acquisition of CD9 by NK-92 cells endows them with features of immune tolerance. Therefore, we measured the intracellular expression levels of cytolytic proteins (perforin and granzyme B), anti-tumor cytokines ([…], TNFα, GM-CSF, IFNγ), the proangiogenic cytokine IL-8, the immunosuppressive cytokine IL-10, and CD107a, a marker for degranulation in both CD9+ and CD9− NK-92 cells after coculture with HGSC cells lines. Specifically, we measured NK-92 cell function before and after coculture in response to phorbol-12-myristate-13-acetate (PMA). Exposing cocultures to PMA circumvents upstream NK receptor signaling and is a convenient method for measuring NK cell function. In a pilot study, we determined that a coculture time of 6 h produced the most robust intracellular cytokine production (ICP). Therefore, NK-92 and HGSC cell lines were cocultured for 6 h in the presence of PMA (4 h exposure) with brefeldin A and monensin added to block secretion (Materials and Methods). For all experiments, we used two positive controls. […]

TYK-nu (V) cell line = test: Carboplatin exposure of HGSC cell line, CyTOF with tumor NK receptor ligand/ADAM antibody panel; format: cell-based; settings: for frequency of cells expressing nectin 4: baseline 6%
Procedure: (§1) FIG. 4. Responses to carboplatin across E, EV and V HGSC cell lines. OVCAR4 (E), Kuramochi (EV) and TYK-nu (V) cell lines exposed to vehicle or carboplatin at 0.5 or 1 μg/ml for 1 week were processed for CyTOF with the tumor NK receptor ligand/ADAM antibody panel. The parent population is defined as viable single cells negative for cisplatin and cPARP. The plots show frequencies of HGSC cells expressing activating and inhibitor NK receptor ligands (X-axis) gated out of the parent population (Y-axis). Plots show the mean of triplicates with standard deviations. p-values: *≤0.05, **≤0.005, for overall ANOVA.
(§2) Changes in NK receptor ligand expression levels in response to carboplatin. It is well established that activation of the DNA damage response with genotoxic agents increases the expression of ligands for NKG2D and DNAM1 thereby making a “stressed” cell more susceptible to NK cell killing. We therefore exposed the three HGSC cell lines to carboplatin, a genotoxic agent that is part of the standard-of-care regimen for women with HGSC. After one week, the HGSC cell lines were processed for CyTOF using the tumor/NK receptor ligand antibody panel (Table 12).
(§3) Sample Processing and Antibody Staining for CyTOF. Frozen, fixed single-cell suspensions of HGSC tumors or cell lines were thawed at room temperature. For each sample, 1×10^6 cells were aliquoted into cluster tubes in 96 well plates and subjected to pre-permeabilization palladium barcoding. After barcoding, pooled cells were pelleted and incubated for 10 min at room temperature with FcX block (Biolegend) to block non-specific antibody binding. Cells were then incubated with antibodies against surface markers for 45 min at room temperature. Cells were permeabilized at 4° C. with methanol or 1× Permeabilization Buffer (eBioscience) (only for the CyTOF antibody panel designed to characterize intracellular cytokines, on ice for 10 min. Cells were subsequently stained with antibodies against intracellular markers for 1 h at room temperature, washed, and incubated with the ^191/193Ir DNA intercalator (Fluidigm) at 4° C. overnight. Cells were washed and resuspended in a solution of normalization beads before introduction into the CyTOF 2.

Kuramochi (EV) cell line = test: as above; format: cell-based; settings: for frequency of cells expressing nectin 4: baseline 15%
Procedure: as §1, §2, §3

OVCAR4 (E) cell line = test: as above; format: cell-based; settings: for frequency of cells expressing nectin 4: OVCAR4, 1 week
Procedure: as §1, §2, §3

[1] = system: HGSC cell lines (OVCAR4, Kuramochi, TYK-nu); test: Carboplatin exposure of the three HGSC cell lines, CyTOF (stated for all lines together); format: cell-based
Procedure: as §1, §2
Sample Processing and Antibody Staining for CyTOF. Frozen, fixed single-cell suspensions of HGSC tumors or cell lines were thawed at room temperature. […]

[2] = system: NK-92 cells cocultured with OVCAR4, Kuramochi and TYK-nu HGSC tumor cell lines; test: Trogocytosis inhibition: CD9 acquisition by NK-92 cells in coculture with HGSC cell lines; format: cell-based, human
Procedure: To further confirm that the mechanism of CD9 acquisition by NK-92 cells was through trogocytosis we performed an additional series of experiments. Many studies have shown that inhibitors of actin polymerization block trogocytosis but that the effect of these inhibitors vary depending on the cell type.
(§4) Trogocytosis inhibition. NK-92 cells were pre-treated with cytochalasin D (10 μM in complete media) for 2 h. They were then co-cultured with cancer cell lines as indicated in a ratio of 1:1 in the continuous presence of cytochalasin D for a further 2 h after which cells were stained with antibodies against CD9, CD45 and processed prior to CyTOF analysis as described above.

[3] = system: NK-92 cells cocultured with non-HGSC tumor cell lines; test: Trogocytosis inhibition: CD9 uptake by NK-92 cells in coculture with non-HGSC cell lines; format: cell-based, human
Excerpt: Evaluation of NK-92 trogocyctosis from non-HGSC cell lines. In order to determine whether NK-92 CD9 trogocytosis was a feature of non-HGSC tumor cells, we established the frequency of CD9-expressing cells in 15 non-HGSC as well as 11 HGSC tumor cell lines (FIG. 6A). The frequency and levels of CD9-expressing tumor cells varied across the cell lines and are presented going from highest to lowest CD9 levels (FIGS. 6A and B). […] We therefore chose three non-HGSC tumor cell lines with high CD9 expression (HCT116, A431 and MCF7) and three with lower CD9 expression (HeLa, CaCo-2 and HepG2) for trogocytosis experiments (FIG. 6B). NK-92 trogocytosis from non-HGSC cell lines was highly varied, not correlated to CD9 levels and, aside from the HCT116 colorectal cancer cell line, less pronounced than from the HGSC cell lines (FIGS. 5C and 6C).
as §4

CCCCCCCCCCCCCC(=O)O[C@@H]1[C@@H](C)[C@@]2(O)[C@@H](C=C(CO)C[C@]3(O)C(=O)C(C)=C[C@@H]23)[C@@H]2C(C)(C)[C@]12OC(C)=O [PMA, phorbol-12-myristate-13-acetate]
NK-92 cell degranulation (CD107a) and production of MIP1a (NK-92 cells): robust responses

N.N.O=C([O-])C1(C(=O)[O-])CCC1.[Pt+2] [carboplatin]
frequency of cells expressing HLA-E (TYK-nu (V) cell line; TYK-nu, after carboplatin 1 week): significant increases
frequency of cells expressing nectin 4 (TYK-nu (V) cell line; TYK-nu, first listed of two carboplatin doses): 9%
frequency of cells expressing nectin 4 (TYK-nu (V) cell line; TYK-nu, second listed of two carboplatin doses): 9%
CD111 in TYK-nu cells (TYK-nu (V) cell line; after carboplatin 1 week): significant increase
frequency of cells expressing HLA-E (Kuramochi (EV) cell line; Kuramochi, after carboplatin 1 week): significant increases
frequency of cells expressing nectin 4 (Kuramochi (EV) cell line; Kuramochi, first listed of two carboplatin doses): 22%
frequency of cells expressing nectin 4 (Kuramochi (EV) cell line; Kuramochi, second listed of two carboplatin doses): 23%
frequency of Kuramochi cells expressing HLA-ABC (Kuramochi (EV) cell line; after carboplatin 1 week): significant increase
frequency of cells expressing HLA-E (OVCAR4 (E) cell line; OVCAR4, after carboplatin 1 week): significant increases
frequency of cells expressing nectin 4 (OVCAR4 (E) cell line; first listed of two carboplatin doses (0.5 or 1 μg/ml), baseline 24%): 39%
frequency of cells expressing nectin 4 (OVCAR4 (E) cell line; second listed of two carboplatin doses (0.5 or 1 μg/ml), baseline 24%): 45%
frequency of OVCAR4 cells expressing ULBP2 (OVCAR4 (E) cell line; after carboplatin (0.5 or 1 μg/ml, 1 week), baseline 24%): 50%
proportion of HGSC tumor cells that expressed NK inhibitory receptor ligands ([1]; all three cell lines, after carboplatin): increased
DNA damage response: pH2AX ([1]; carboplatin 0.5 or 1 μg/ml for 1 week): increase

C=C1[C@@H](C)[C@H]2[C@H](Cc3ccccc3)NC(=O)[C@]23[C@H](OC(C)=O)/C=C/[C@@](C)(O)C(=O)[C@@H](C)C/C=C/[C@H]3[C@@H]1O [cytochalasin D]
reduction of CD9+ NK-92 cells ([2]; NK-92 pre-incubated 2 h with cytochalasin D, coculture in its presence with OVCAR4, Kuramochi and TYK-nu): 40-69%
inhibition of trogocytosis (HGSC cell line coculture) ([2]; pre-incubation of NK-92 cells with cytochalasin D (10 μM)): partial inhibition
CD9 uptake in NK-92 ([3]; non-HGSC cell lines, most marked for HCT116, MCF7 and CaCo2): partially inhibited
inhibition of trogocytosis (non-HGSC cell coculture) ([3]; preincubation of NK-92 cells with cytochalasin D (10 μM)): partial inhibition
